Source: the supplement of paper PMC10307832

How the values were obtained:
Experiment in all cases: relative viability (nuclei count vs DMSO), 5 days (fraction); higher = more cells survive
Idelalisib + OSI-027 = compound: CC[C@H](Nc1ncnc2[nH]cnc12)c1nc2cccc(F)c2c(=O)n1-c1ccccc1 [Idelalisib] + COc1cccc2cc(-c3nc([C@H]4CC[C@H](C(=O)O)CC4)n4ncnc(N)c34)[nH]c12 [OSI-027] (partner 0.5 µM)
Outline: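 Lung cancer cell lines in 1536-well plates were dosed by pin tool the day after seeding, either with one drug alone or with a fixed anchor-drug dose plus five library-drug doses (not always all listed) in √10 steps. After 5 days, cells were fixed and their nuclei stained in one step (final 0.05% Triton X-100, 1% formaldehyde, 1 ug/ml Hoechst), then counted on 4× images. Relative viability is the nuclei count in treated wells divided by that in vehicle wells. Values are medians of duplicate plates.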

Pemetrexed = compound: Nc1nc2[nH]cc(CCc3ccc(C(=O)N[C@@H](CCC(=O)O)C(=O)O)cc3)c2c(=O)[nH]1 [Pemetrexed]
Outline: (§1)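 Lung cancer cell lines received five library-drug doses (not always all listed) spaced by √10, pinned on vehicle-anchored 1536-well plates after an overnight stay at 37 °C. Five days later, with no medium change, nuclei were Hoechst-stained, imaged at 4× and counted with MetaXpress. Viability is treated-well nuclei relative to vehicle-well nuclei, as a median across plates. Passing plates had control CV below 25% and at least one doubling.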

Idelalisib = compound: CC[C@H](Nc1ncnc2[nH]cnc12)c1nc2cccc(F)c2c(=O)n1-c1ccccc1 [Idelalisib]
Outline: as §1

| Cell Line | relative viability (Idelalisib + OSI-027; first compound 0.04 µM) | relative viability (Idelalisib + OSI-027; first compound 0.1265 µM) | relative viability (Idelalisib + OSI-027; first compound 0.4 µM) | relative viability (Idelalisib + OSI-027; first compound 1.265 µM) | relative viability (Idelalisib + OSI-027; first compound 4 µM) | relative viability (Pemetrexed; 0.002 µM) | relative viability (Pemetrexed; 0.006325 µM) | relative viability (Pemetrexed; 0.02 µM) | relative viability (Pemetrexed; 0.06325 µM) | relative viability (Pemetrexed; 0.2 µM) | relative viability (Pemetrexed; 0.2 µM, anchor plate) | relative viability (Idelalisib; 0.04 µM) | relative viability (Idelalisib; 0.1265 µM) | relative viability (Idelalisib; 0.4 µM) | relative viability (Idelalisib; 1.265 µM) | relative viability (Idelalisib; 4 µM) |
| --- | --- | --- | --- | --- | --- | --- | --- | --- | --- | --- | --- | --- | --- | --- | --- | --- |
| NCI-H520 | 0.287 | 0.265 | 0.186 | 0.206 | 0.179 | 0.938 | 0.969 | 0.95 | 0.936 | 0.975 | 0.693 | 0.958 | 0.987 | 0.84 | 0.922 | 0.79 |
| NCI-H1563 | 0.766 | 0.757 | 0.703 | 0.767 | 0.701 | 0.907 | 0.955 | 0.991 | 1.03 | 1.01 | 0.799 | 0.96 | 0.997 | 0.909 | 0.946 | 0.876 |
| NCI-H2405 | 0.675 | 0.648 | 0.433 | 0.612 | 0.516 | 0.97 | 0.985 | 1.09 | 0.98 | 0.961 | 1.08 | 1.06 | 0.985 | 0.886 | 1 | 0.956 |
| LCLC-97TM1 | 0.649 | 0.543 | 0.24 | 0.554 | 0.418 | 0.913 | 0.891 | 0.93 | 1.02 | – | – | 1.17 | 0.92 | 0.777 | 1.09 | 0.911 |
| NCI-H727 | 0.749 | 0.708 | 0.45 | 0.562 | 0.52 | 0.844 | 0.931 | 0.899 | 0.958 | 0.899 | – | 1.07 | 1.16 | 0.715 | 0.987 | 0.887 |
| NCI-H522 | 0.823 | 0.711 | 0.729 | 0.771 | 0.698 | 1.18 | 0.999 | 0.916 | 0.868 | 1.03 | 1.03 | 1.13 | 0.865 | 0.916 | 0.997 | 0.974 |
| NCI-H1623 | 0.409 | 0.463 | 0.45 | 0.402 | 0.386 | 0.899 | 1.04 | 0.976 | 0.912 | 0.955 | – | 1 | 0.961 | 0.846 | 0.949 | 0.817 |
| NCI-H2228 | 0.687 | 0.725 | 0.453 | 0.637 | 0.597 | 0.799 | 0.878 | 1.2 | 0.838 | 0.333 | 0.339 | 1.22 | 0.84 | 0.788 | 1.12 | 0.972 |
| LK-2 | 0.219 | 0.223 | – | 0.198 | 0.183 | 0.854 | 0.925 | 1.06 | 0.868 | 0.685 | 0.284 | 1.22 | 1 | – | 1.06 | 0.87 |
| PC-3 [JPC-3] | 0.712 | 0.747 | 0.639 | 0.694 | 0.571 | 0.882 | 1.1 | 1.06 | 1.04 | 0.964 | 1.16 | 1.19 | 1.05 | 1.03 | 1.02 | 0.915 |
